Laboratory results reported in article doi:10.1101/2024.06.10.598391v1 (bioRxiv, 2024).

What was measured:
[1] = Micelle morphology by negative-stain TEM; format: physicochemical; settings: 5 µM; for Morphology: negative-stain TEM (NanoW), 120 kV, categories by L/D; for Cylinder length / Sphere diameter: negative-stain TEM
[2] = Secondary structure by circular dichroism; format: physicochemical; settings: CD, 40 μM in PBS; for organized secondary structure (α-helix and β-sheet): sum of α-helix and β-sheet; for combined α-helix and random coil content: sum of α-helix and random coil
[3] = test system: RAW 264.7 (macrophage-like cells - Mφs); experiment: Cell viability of LPS-treated Mφs by flow cytometry; format: cell-based, murine; settings: for cell viability relative to untreated cells: 10 µM
[4] = test system: secreted tumor necrosis factor-α (TNF-α) of LPS-activated RAW 264.7 Mφs; experiment: TNF-α secretion of LPS-activated Mφs; format: cell-based, murine; settings: 6 h, ELISA
[5] = test system: RAW 264.7 (macrophage-like cells - Mφs); experiment: Micelle surface attachment and internalization by Mφs, confocal microscopy; format: cell-based, murine; settings: 5 µM, 1:19 FAM-PA:Non-FAM-PA, LPS 0.1 µg/mL
[6] = test system: RAW 264.7 (macrophage-like cells - Mφs); experiment: Micelle association with Mφs by flow cytometry; format: cell-based, murine; settings: 5 µM, 1:19 FAM-PA:Non-FAM-PA
[7] = LPS-treated (0.1 µg/mL) Mφs, six hours, flow cytometry

Substance | Morphology [1] | Cylinder length [1] | Sphere diameter [1] | further results
VIP(^SVIP)-KEKEEEEE-CONH2 [Palm2K-VIP-(KE)2E4] | Spheres + Short/Small Cylinders | 20 - 300 nm | 10 - 20 nm | micelle location on/in Mφs ([5]; 6 hours): cell membranes coated; MFI of micelle-associated Mφs ([6]; 6 hours): greatest Mφ association
VIP(^SVIP)-KEKEEEEE-CONH2 [Palm2K-^SVIP-(KE)2E4] | Spheres + Short/Small Cylinders | 50 - 250 nm | 10 - 20 nm | –
VIP(^SVIP)-KEKEKEKE-CONH2 [Palm2K-VIP-(KE)4] | Small/Medium Cylinders | 100 - 700 nm | – | cell viability relative to untreated cells [3, 7]: 70 - 80%; modulation of TNF-α secretion ([4]; 5 µM and 10 µM): significant TNF-α suppression; micelle location on/in Mφs ([5]; 1 hour): only found along the Mφ cell membrane
VIP(^SVIP)-KEKEKKKK-CONH2 [Palm2K-VIP-(KE)2K4] | Mostly Spheres | – | 10 - 15 nm | combined α-helix and random coil content [2]: 46.5%
VIP(^SVIP)-KEKEKKKK-CONH2 [Palm2K-^SVIP-(KE)2K4] | Small/Medium Cylinders | 100 - 400 nm | – | percentage of Mφs associated with fluorophore-labeled micelles ([6]; 1 hour): Mφs preferred to associate

Further lines, with some results ahead:

Morphology [1] | Cylinder length [1] | Sphere diameter [1] | Substance | further results
lacks any particle structure | – | – | Ac-HSDAVFTDNYTRLRKQMAVKKYLNSILN-CONH2 [VIP, reference compound] | organized secondary structure (α-helix and β-sheet) [2]: 49.4%; cytotoxicity ([3]; LPS-treated (0.1 µg/mL) Mφs, up to 5 µM, six hours, flow cytometry): Minimal cytotoxicity; modulation of TNF-α secretion ([4]; 1 µM and 2.5 µM): No appreciable modulation; modulation of TNF-α secretion ([4]; 5 µM and 10 µM): significant TNF-α suppression
Amorphous aggregates | – | – | Ac-NSDLIATDSYTRMRKQVLANKKFHYLVN-NH2 [^SVIP] | organized secondary structure (α-helix and β-sheet) [2]: 46.6%; viability of treated cells ([3]; LPS-treated Mφs, 5 µM, 6 hours (Figure 3a)): remained high
Spheres | – | 10 - 15 nm | VIP(^SVIP)-KEKEKEKE-CONH2 [Palm2K-^SVIP-(KE)4] | combined α-helix and random coil content [2]: 41.5%
Mostly Large/Long Cylinders | 1000 - 9000 nm | – | VIP(^SVIP)-KEKEKEKE-CONH2 [PalmK-VIP-(KE)4] | cell viability relative to untreated cells [3, 7]: 70 - 80%; micelle location on/in Mφs ([5]; 1 hour): only found along the Mφ cell membrane
Mostly Large/Long Cylinders | 1000 - 9000 nm | – | VIP(^SVIP)-KEKEKEKE-CONH2 [PalmK-^SVIP-(KE)4] | –
